SMILES | melting point [°C]
Nc1ncccc1OCc1ccccc1 [2-amino-3-benzyloxypyridine] | 93
Nc1ncc(C(F)(F)F)cc1Br [2-amino-3-bromo-5-(trifluoromethyl)pyridine] | 100
N#Cc1c(N)sc2c1CCCC2 [2-amino-4,5,6,7-tetrahydrobenzo[b]thiophene-3-carbonitrile] | 143
Cc1cc(C)nc(N)n1 [2-amino-4,6-dimethylpyrimidine] | 153
COc1nc(N)nc(SC)n1 [2-amino-4-methoxy-6-(methylthio)-1,3,5-triazine] | 201
CC(C)(C)c1ccc(O)c(N)c1 [2-amino-4-tert-butylphenol] | 163
Nc1ncc(Br)cc1[N+](=O)[O-] [2-amino-5-bromo-3-nitropyridine] | 208
Nc1ccc(Cl)cc1C(=O)c1ccccc1 [2-amino-5-chlorobenzophenone] | 98
Nc1ccc([N+](=O)[O-])cc1C(=O)c1ccccc1 [2-amino-5-nitrobenzophenone] | 167
Nc1cccc(Cl)c1C(=O)O [2-amino-6-chlorobenzoic acid] | 151
Nc1cccc(F)c1C(=O)O [2-amino-6-fluorobenzoic acid] | 166
Cc1cccc(N)n1 [2-amino-6-methylpyridine] | 43
Nc1ccc2cc3ccccc3cc2c1 [2-aminoanthracene] | 237
NC(=O)c1ccccc1N [2-aminobenzamide] | 112
Nc1ccccc1B(O)O [2-aminobenzeneboronic acid] | 189
N#Cc1ccccc1N [2-aminobenzonitrile] | 48
Nc1ccccc1-c1ccccc1 [2-aminobiphenyl] | 50
NCCOB(c1ccccc1)c1ccccc1 [2-aminoethyl diphenylborinate] | 189
CC(C)N [2-aminopropane] | -95
Nc1ccccn1 [2-aminopyridine] | 58
Nc1ccccc1S [2-aminothiophenol] | 19
N#CCc1nc2ccccc2s1 [2-benzothiazoleacetonitrile] | 101
O=c1[nH]c2ccccc2o1 [2-benzoxazolinone] | 140
O=C(c1ccccc1)c1ccccn1 [2-benzoylpyridine] | 43
OB(O)c1cc(F)ccc1OCc1ccccc1 [2-benzyloxy-5-fluorobenzeneboronic acid] | 119

SMILES | melting point [°C]
OB(O)c1ccccc1OCc1ccccc1 [2-benzyloxybenzeneboronic acid] | 98
O=C(CBr)c1c(F)c(F)c(F)c(F)c1F [2-bromo-2',3',4',5',6'-pentafluoroacetophenone] | 31
COc1cc(Br)c(/C=C/C(=O)O)cc1OC [2-bromo-4,5-dimethoxycinnamic acid] | 255
Nc1ccc(C(F)(F)F)cc1Br [2-bromo-4-(trifluoromethyl)aniline] | 30
Cc1cc(C)c([N+](=O)[O-])c(C)c1Br [2-bromo-4-nitro-1,3,5-trimethylbenzene] | 60
CCOc1ccc([N+](=O)[O-])cc1Br [2-bromo-4-nitrophenetole] | 55
Fc1ccc(Br)nc1 [2-bromo-5-fluoropyridine] | 29
O=C(O)c1cc([N+](=O)[O-])ccc1Br [2-bromo-5-nitrobenzoic acid] | 180
FC(F)(F)c1cccc(Br)n1 [2-bromo-6-(trifluoromethyl)pyridine] | 50
Br/C(C)=CC [2-bromo-cis-2-butene] | -111
Cc1ccc(C)c(Br)c1 [2-bromo-p-xylene] | 10
O=C(CBr)c1ccccc1 [2-bromoacetophenone] | 50
O=C(O)c1ccccc1Br [2-bromobenzoic acid] | 149
CCC(C)Br (stereo not drawn) [2-bromobutane] | -112
Cc1cc(C)c(Br)c(C)c1 [2-bromomesitylene] [listing 1 of 2 here] | 2
Cc1cc(C)c(Br)c(C)c1 [2-bromomesitylene] [listing 2 of 2 here] | 2
CC(C)Br [2-bromopropane] | -89
O=C(O)c1cnc(Br)s1 [2-bromothiazole-5-carboxylic acid] | 182
Cc1ccccc1Br [2-bromotoluene] | -27
CCC(C)=O [2-butanone] | -87
CC#CCO [2-butyn-1-ol] | -2
O=Cc1ccccc1C(=O)O [2-carboxybenzaldehyde] | 99
O=C(O)c1ccccc1B(O)O [2-carboxybenzeneboronic acid] | 220
CC(C)(C)Cl [2-chloro-2-methylpropane] | -25
O=C(CCl)Nc1cccc([N+](=O)[O-])c1 [2-chloro-3'-nitroacetanilide] | 114

SMILES | melting point [°C]
COc1ccc(C#N)c(Cl)c1OC [2-chloro-3,4-dimethoxybenzonitrile] | 102
O=[N+]([O-])c1cccnc1Cl [2-chloro-3-nitropyridine] | 101
OCc1ccc(F)cc1Cl [2-chloro-4-fluorobenzyl alcohol] | 45
Nc1ccc(I)cc1Cl [2-chloro-4-iodoaniline] | 70
COc1ccc(CBr)c(Cl)c1 [2-chloro-4-methoxybenzyl bromide] | 57
Cc1ccc(N)c(Cl)c1 [2-chloro-4-methylaniline] | 7
Cc1ccc([N+](=O)[O-])cc1Cl [2-chloro-4-nitrotoluene] [listing 1 of 2 here] | 64
Cc1ccc([N+](=O)[O-])cc1Cl [2-chloro-4-nitrotoluene] [listing 2 of 2 here] | 60
Cc1ccc(Cl)c(N)c1 [2-chloro-5-methylaniline] | 31
O=[N+]([O-])c1ccc(Cl)c(CO)c1 [2-chloro-5-nitrobenzyl alcohol] | 77
O=C(O)c1ccc(C(F)(F)F)nc1Cl [2-chloro-6-(trifluoromethyl)nicotinic acid] | 119
OB(O)c1ccccc1Cl [2-chlorobenzeneboronic acid] | 98
NS(=O)(=O)c1ccccc1Cl [2-chlorobenzenesulfonamide] | 190
N#CCc1ccccc1Cl [2-chlorobenzyl_cyanide] | 24
CCC(C)Cl (stereo not drawn) [2-chlorobutane] | -131
OCCCl [2-chloroethanol] [listing 1 of 2 here] | -63
OCCCl [2-chloroethanol] [listing 2 of 2 here] | -67
Cc1ccc(S(=O)(=O)CCCl)cc1 [2-chloroethyl p-tolyl sulfone] | 79
OB(O)c1cccnc1Cl [2-chloropyridine-3-boronic acid] | 160
OB(O)c1ccnc(Cl)c1 [2-chloropyridine-4-boronic acid] | 162
O=Cc1ccnc(Cl)c1 [2-chloropyridine-4-carboxaldehyde] | 48
OCc1ccnc(Cl)c1 [2-chloropyridine-4-methanol] | 65
OB(O)c1cc2ccccc2nc1Cl [2-chloroquinoline-3-boronic acid] | 146

Reference: the Bradley open melting point set (2014)
